# Target: KRasG12C (M1-K169, biotinylated on the N-terminus) (Homo sapiens (Human), UniProt P01116, G12C)
# Assay: Covalent competition assay: scintillation proximity assay (SPA) quantifying covalent modification of KRASG12C
# Type: binding
# Details: competition with radiolabeled covalent probe (Compound B/Compound A), 2 hours incubation, 10 nM KRasG12C
# Outline: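 Scintillation proximity readout after streptavidin bead capture (30 min) of biotinylated KRasG12C(M1-K169):GDP, 10 nM final, which was covalently labelled over 2 h by 25 nM radio-probe plus 475 nM cold probe unless blocked by compound.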
row,IC50 [nM],SMILES
1,405,"C=CC(=O)N1CC2(CC(n3nc(N4CCC(CN5CCOCC5)CC4(C)COC)c(-c4c(Cl)c(Cl)cc5[nH]ncc45)c3C)C2)C1 (single isomer, unassigned) [Example 221b, 1-(6-(4-(5,6-dichloro-1H-indazol-4-yl)-3-(2-(methoxymethyl)-2-methyl-4-(morpholinomethyl)piperidin-1-yl)-5-methyl-1H-pyrazol-1-yl)-2-azaspiro[3.3]heptan-2-yl)prop-2-en-1-one]"
2,1100,"C=CC(=O)N1CC2(CC(n3nc(N4CCC(CN5CCOCC5)CC4(C)CC)c(-c4c(Cl)c(C)cc5[nH]ncc45)c3C)C2)C1 (single isomer, unassigned) [Example 222a, 1-(6-(4-(5-chloro-6-methyl-1H-indazol-4-yl)-3-(2-ethyl-2-methyl-4-(morpholinomethyl)piperidin-1-yl)-5-methyl-1H-pyrazol-1-yl)-2-azaspiro[3.3]heptan-2-yl)prop-2-en-1-one]"
3,7,"C=CC(=O)N1CC2(CC(n3nc(N4CCC(CN5CCOCC5)CC4(C)CC)c(-c4c(Cl)c(C)cc5[nH]ncc45)c3C)C2)C1 (single isomer, unassigned) [Example 222b, 1-(6-(4-(5-chloro-6-methyl-1H-indazol-4-yl)-3-(2-ethyl-2-methyl-4-(morpholinomethyl)piperidin-1-yl)-5-methyl-1H-pyrazol-1-yl)-2-azaspiro[3.3]heptan-2-yl)prop-2-en-1-one]"
4,> 5000,"[2H]C([2H])([2H])c1c(-c2c(Cl)c(Cl)cc3[nH]ncc23)c(N2CC[C@@H](CN3CCOCC3)CC2(C)C)nn1C1CC2(C1)CN(C(=O)C=C)C2 (single isomer, unassigned) [Example 224a]"
5,12,"[2H]C([2H])([2H])c1c(-c2c(Cl)c(Cl)cc3[nH]ncc23)c(N2CC[C@@H](CN3CCOCC3)CC2(C)C)nn1C1CC2(C1)CN(C(=O)C=C)C2 (single isomer, unassigned) [Example 224b]"
6,341,"C=CC(=O)N1CC2(CC(n3nc(N4CC[C@@H](CN5CCOCC5)CC4(C)C)c(-c4c(Cl)c(C)cc5[nH]nc(C)c45)c3C#N)C2)C1 (single isomer, unassigned) [Example 225a]"
7,> 5000,"C=CC(=O)N1CC2(CC(n3nc(N4CC[C@@H](CN5CCOCC5)CC4(C)C)c(-c4c(Cl)c(C)cc5[nH]nc(C)c45)c3C#N)C2)C1 (single isomer, unassigned) [Example 225b]"
8,119,"C=CC(=O)N1CC2(CC(n3nc(N4CCC(CN5CC6COCC6C5)CC4(C)C)c(-c4c(Cl)c(Cl)cc5[nH]ncc45)c3C)C2)C1 (single isomer, unassigned) [Example 226a, 1-(6-(4-(5,6-dichloro-1H-indazol-4-yl)-3-(2,2-dimethyl-4-((tetrahydro-1H-furo[3,4-c]pyrrol-5(3H)-yl)methyl)piperidin-1-yl)-5-methyl-1H-pyrazol-1-yl)-2-azaspiro[3.3]heptan-2-yl)prop-2-en-1-one]"
9,1100,"C=CC(=O)N1CC2(CC(n3nc(N4CCC(CN5CC6COCC6C5)CC4(C)C)c(-c4c(Cl)c(Cl)cc5[nH]ncc45)c3C)C2)C1 (single isomer, unassigned) [Example 226b, 1-(6-(4-(5,6-dichloro-1H-indazol-4-yl)-3-(2,2-dimethyl-4-((tetrahydro-1H-furo[3,4-c]pyrrol-5(3H)-yl)methyl)piperidin-1-yl)-5-methyl-1H-pyrazol-1-yl)-2-azaspiro[3.3]heptan-2-yl)prop-2-en-1-one]"
10,4900,"C=CC(=O)N1CC2(CC(n3nc(N4CCC(CN5CC6COCC6C5)CC4(C)C)c(-c4c(Cl)c(Cl)cc5[nH]ncc45)c3C)C2)C1 (single isomer, unassigned) [Example 227a, 1-(6-(4-(5,6-dichloro-1H-indazol-4-yl)-3-(2,2-dimethyl-4-((tetrahydro-1H-furo[3,4-c]pyrrol-5(3H)-yl)methyl)piperidin-1-yl)-5-methyl-1H-pyrazol-1-yl)-2-azaspiro[3.3]heptan-2-yl)prop-2-en-1-one]"
11,8,"C=CC(=O)N1CC2(CC(n3nc(N4CCC(CN5CC6COCC6C5)CC4(C)C)c(-c4c(Cl)c(Cl)cc5[nH]ncc45)c3C)C2)C1 (single isomer, unassigned) [Example 227b, 1-(6-(4-(5,6-dichloro-1H-indazol-4-yl)-3-(2,2-dimethyl-4-((tetrahydro-1H-furo[3,4-c]pyrrol-5(3H)-yl)methyl)piperidin-1-yl)-5-methyl-1H-pyrazol-1-yl)-2-azaspiro[3.3]heptan-2-yl)prop-2-en-1-one]"
12,> 5000,"C=CC(=O)N1CC2(CC(n3nc(N4CCC(CN5C[C@@H]6OCCO[C@@H]6C5)CC4(C)C)c(-c4c(Cl)c(Cl)cc5[nH]ncc45)c3C)C2)C1 (single isomer, unassigned) [Example 231a]"
13,11,"C=CC(=O)N1CC2(CC(n3nc(N4CCC(CN5C[C@@H]6OCCO[C@@H]6C5)CC4(C)C)c(-c4c(Cl)c(Cl)cc5[nH]ncc45)c3C)C2)C1 (single isomer, unassigned) [Example 231b]"
14,> 5000,"C=CC(=O)N1CC2(CC(n3nc(N4CCC(CN5C[C@@H]6OCCO[C@@H]6C5)CC4(C)C)c(-c4c(Cl)c(Cl)cc5[nH]ncc45)c3C)C2)C1 (single isomer, unassigned) [Example 232a]"
15,137,"C=CC(=O)N1CC2(CC(n3nc(N4CCC(CN5C[C@@H]6OCCO[C@@H]6C5)CC4(C)C)c(-c4c(Cl)c(Cl)cc5[nH]ncc45)c3C)C2)C1 (single isomer, unassigned) [Example 232b]"

row,SMILES,IC50 [nM]
1,"C=CC(=O)N1CC2(CC(n3nc(N4CCC(CN5CC6CC(C5)O6)CC4(C)C)c(-c4c(Cl)c(Cl)cc5[nH]ncc45)c3C)C2)C1 (single isomer, unassigned) [Example 228a, 1-(6-(3-(4-((6-oxa-3-azabicyclo[3.1.1]heptan-3-yl)methyl)-2,2-dimethylpiperidin-1-yl)-4-(5,6-dichloro-1H-indazol-4-yl)-5-methyl-1H-pyrazol-1-yl)-2-azaspiro[3.3]heptan-2-yl)prop-2-en-1-one]",> 5000
2,"C=CC(=O)N1CC2(CC(n3nc(N4CCC(CN5CC6CC(C5)O6)CC4(C)C)c(-c4c(Cl)c(Cl)cc5[nH]ncc45)c3C)C2)C1 (single isomer, unassigned) [Example 228b, 1-(6-(3-(4-((6-oxa-3-azabicyclo[3.1.1]heptan-3-yl)methyl)-2,2-dimethylpiperidin-1-yl)-4-(5,6-dichloro-1H-indazol-4-yl)-5-methyl-1H-pyrazol-1-yl)-2-azaspiro[3.3]heptan-2-yl)prop-2-en-1-one]",281
3,"C=CC(=O)N1CC2(CC(n3nc(N4CCC(CN5CC6CC(C5)O6)CC4(C)C)c(-c4c(Cl)c(Cl)cc5[nH]ncc45)c3C)C2)C1 (single isomer, unassigned) [Example 229a, 1-(6-(3-(4-((6-oxa-3-azabicyclo[3.1.1]heptan-3-yl)methyl)-2,2-dimethylpiperidin-1-yl)-4-(5,6-dichloro-1H-indazol-4-yl)-5-methyl-1H-pyrazol-1-yl)-2-azaspiro[3.3]heptan-2-yl)prop-2-en-1-one]",> 5000
4,"C=CC(=O)N1CC2(CC(n3nc(N4CCC(CN5CC6CC(C5)O6)CC4(C)C)c(-c4c(Cl)c(Cl)cc5[nH]ncc45)c3C)C2)C1 (single isomer, unassigned) [Example 229b, 1-(6-(3-(4-((6-oxa-3-azabicyclo[3.1.1]heptan-3-yl)methyl)-2,2-dimethylpiperidin-1-yl)-4-(5,6-dichloro-1H-indazol-4-yl)-5-methyl-1H-pyrazol-1-yl)-2-azaspiro[3.3]heptan-2-yl)prop-2-en-1-one]",11

# Source: US20240317721A1, “PYRAZOLYL DERIVATIVES AS INHIBITORS OF THE KRAS MUTANT PROTEIN” (NOVARTIS AG, priority 2021, published 2024)
